Earlier results in patent US20200078455A1, “MESOTHELIN VACCINE FOR OVARIAN CANCER PREVENTION” (SRI INTERNATIONAL, priority 2017, published 2020).

For Oregovomab, which recurrence rate (compared with women who received a placebo) is on record?
Its recurrence rate is “no difference in the recurrence rate”.

What about the immune response (women with ovarian cancer) of the same molecule?
Its immune response is “elicit an immune response”.

B1: Abagovomab (antibody, chains of the INN, looked up, V domains shown)
VH: QVKLQESGAELARPGASVKLSCKASGYTFTNYWMQWVKQRPGQGLDWIGAIYPGDGNTRYTHKFKGKATLTADKSSSTAYMQLSSLASEDSGVYYCARGEGNYAWFAYWGQGTTVTVSS
VL: DIELTQSPASLSASVGETVTITCQASENIYSYLAWHQQKQGKSPQLLVYNAKTLAGGVSSRFSGSGSGTHFSLKIKSLQPEDFGIYYCQHHYGILPTFGGGTKLEIK
notes: ovarian cancer vaccine that has been studied
Which immune response (women with ovarian cancer) does the source give for B1 here?
The immune response was “elicit an immune response”.

And the survival (women with ovarian cancer)?
Its survival is “not clear that this leads to longer survival”.
